According to US9840501B2, “Morpholin-pyridine derivatives” (Hoffmann-La Roche Inc., priority 2014, dated 2017):

Columns and labels:
mouse TAAR1 = mouse TAAR1 (Mus musculus (Mouse), UniProt Q923Y8); assay: Radioligand binding assay on mouse TAAR1; details: for Ki: mouse TAAR1, membranes of stably transfected HEK-293 cells, first value of the pair, read-out: Ki (μM) mouse/rat: mouse
Outline: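 Membranes from HEK293 cells stably expressing mouse TAAR1, in 20 mM HEPES-NaOH pH 7.4 with 0.1 mM EDTA, incubated 1 h at 4 °C with ^3[H]-(S)-4-[(ethyl-phenyl-amino)-methyl]-4,5-dihydro-oxazol-2-ylamine and compounds (10 pM to 10 μM, duplicates). Nonspecific binding with 10 μM unlabeled ligand; bound radioactivity counted after filtration.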

rat TAAR1 = rat TAAR1 (Rattus norvegicus (Rat), UniProt Q923Y9); assay: Radioligand binding assay on rat TAAR1; details: for Ki: rat TAAR1, membranes of stably transfected HEK-293 cells, second value of the pair, read-out: Ki (μM) mouse/rat: rat
Outline: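 Membranes from HEK293 cells stably expressing rat TAAR1, in 20 mM HEPES-NaOH pH 7.4; displacement of 3[H]-(S)-4-[(ethyl-phenyl-amino)-methyl]-4,5-dihydro-oxazol-2-ylamine, nonspecific binding with 10 μM unlabeled ligand. Compounds 10 pM to 10 μM in duplicate, 1 h at 4 °C, filtration and scintillation counting.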

rat TAAR1, sequence (Q923Y9 whole entry): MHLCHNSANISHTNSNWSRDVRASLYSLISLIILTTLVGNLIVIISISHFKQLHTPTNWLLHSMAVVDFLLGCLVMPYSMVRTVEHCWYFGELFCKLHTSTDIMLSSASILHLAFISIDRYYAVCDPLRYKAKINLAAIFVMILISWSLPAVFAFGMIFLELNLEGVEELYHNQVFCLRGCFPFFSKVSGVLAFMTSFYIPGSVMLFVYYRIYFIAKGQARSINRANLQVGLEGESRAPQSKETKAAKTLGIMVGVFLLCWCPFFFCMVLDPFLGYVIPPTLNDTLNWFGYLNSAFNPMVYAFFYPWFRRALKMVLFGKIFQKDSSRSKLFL
mouse TAAR1, sequence (Q923Y8 whole entry): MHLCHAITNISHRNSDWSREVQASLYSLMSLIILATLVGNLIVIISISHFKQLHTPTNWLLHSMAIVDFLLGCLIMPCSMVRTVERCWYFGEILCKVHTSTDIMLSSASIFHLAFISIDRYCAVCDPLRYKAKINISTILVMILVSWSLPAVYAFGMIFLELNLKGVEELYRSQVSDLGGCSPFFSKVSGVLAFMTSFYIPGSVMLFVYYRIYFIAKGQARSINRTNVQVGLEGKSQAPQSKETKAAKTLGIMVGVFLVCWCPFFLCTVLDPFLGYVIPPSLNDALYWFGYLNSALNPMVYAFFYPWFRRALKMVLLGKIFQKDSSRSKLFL

Kd (mouse TAAR1; mouse TAAR1 membranes, saturation curve, usual value per membrane batch, read-out: dissociation constant (Kd) of the radioligand) [nM] | Kd (rat TAAR1; rat TAAR1 membranes, saturation curve, usual value per membrane batch, read-out: dissociation constant (Kd) of the radioligand) [nM] | Compound | Ki (mouse TAAR1) [µM] | Ki (rat TAAR1) [µM]
– | – | Cc1cc(C(=O)Nc2ccc([C@H]3CNCCO3)nc2)nc(C(F)(F)F)n1 [Example 68, (R)-6-Methyl-N-(6-(morpholin-2-yl)pyridin-3-yl)-2-(trifluoromethyl)pyrimidine-4-carboxamide] | 0.0731 | 0.0469
– | – | Cc1cc(C(=O)Nc2ccc([C@@H]3CNCCO3)nc2)nc(C(F)(F)F)n1 [Example 69, (S)-6-Methyl-N-(6-(morpholin-2-yl)pyridin-3-yl)-2-(trifluoromethyl)pyrimidine-4-carboxamide] | 0.0762 | 0.0512
– | – | CCc1n[nH]c(C(=O)Nc2ccc([C@@H]3CNCCO3)nc2)c1Cl [Example 76, 4-Chloro-3-ethyl-N-[6-[(2S)-morpholin-2-yl]-3-pyridyl]-1H-pyrazole-5-carboxamide] | 0.0063 | 0.0384
– | – | CCc1n[nH]c(C(=O)Nc2ccc([C@@H]3CNCCO3)nc2)c1F [Example 77, 3-Ethyl-4-fluoro-N-[6-[(2S)-morpholin-2-yl]-3-pyridyl]-1H-pyrazole-5-carboxamide] | 0.0121 | 0.302
– | – | CCc1n[nH]c(C(=O)Nc2ccc([C@@H]3CNCCO3)nc2)c1Br [Example 78, 4-Bromo-3-ethyl-N-[6-[(2S)-morpholin-2-yl]-3-pyridyl]-1H-pyrazole-5-carboxamide] | 0.0056 | 0.041
– | – | CCCc1n[nH]c(C(=O)Nc2ccc([C@@H]3CNCCO3)nc2)c1F [Example 79, 4-Fluoro-N-[6-[(2S)-morpholin-2-yl]-3-pyridyl]-3-propyl-1H-pyrazole-5-carboxamide] | 0.0074 | 0.0568
– | – | O=C(Nc1ccc([C@@H]2CNCCO2)nc1)c1[nH]nc(C2CC2)c1F [Example 80, 3-Cyclopropyl-4-fluoro-N-[6-[(2S)-morpholin-2-yl]-3-pyridyl]-1H-pyrazole-5-carboxamide] | 0.0065 | 0.0856
– | – | O=C(Nc1ccc([C@@H]2CNCCO2)nc1)c1[nH]nc(C2CC2)c1Br [Example 81, 4-Bromo-3-cyclopropyl-N-[6-[(2S)-morpholin-2-yl]-3-pyridyl]-1H-pyrazole-5-carboxamide] | 0.006 | 0.0152
– | – | CCc1n[nH]c(C(=O)Nc2ccc([C@H]3CNCCO3)nc2)c1Cl [Example 82, 4-Chloro-3-ethyl-N-[6-[(2R)-morpholin-2-yl]-3-pyridyl]-1H-pyrazole-5-carboxamide] | 0.0039 | 0.0925
– | – | CCc1n[nH]c(C(=O)Nc2ccc([C@H]3CNCCO3)nc2)c1F [Example 83, 3-Ethyl-4-fluoro-N-[6-[(2R)-morpholin-2-yl]-3-pyridyl]-1H-pyrazole-5-carboxamide] | 0.0083 | 0.757
– | – | CCc1n[nH]c(C(=O)Nc2ccc([C@H]3CNCCO3)nc2)c1Br [Example 84, 4-Bromo-3-ethyl-N-[6-[(2R)-morpholin-2-yl]-3-pyridyl]-1H-pyrazole-5-carboxamide] | 0.0063 | 0.0685
– | – | CCCc1n[nH]c(C(=O)Nc2ccc([C@H]3CNCCO3)nc2)c1F [Example 85, 4-Fluoro-N-[6-[(2R)-morpholin-2-yl]-3-pyridyl]-3-propyl-1H-pyrazole-5-carboxamide] | 0.0046 | 0.15
– | – | O=C(Nc1ccc([C@H]2CNCCO2)nc1)c1[nH]nc(C2CC2)c1F [Example 86, 3-Cyclopropyl-4-fluoro-N-[6-[(2R)-morpholin-2-yl]-3-pyridyl]-1H-pyrazole-5-carboxamide] | 0.0074 | 0.156
– | – | O=C(Nc1ccc([C@H]2CNCCO2)nc1)c1[nH]nc(C2CC2)c1Br [Example 87, 4-Bromo-3-cyclopropyl-N-[6-[(2R)-morpholin-2-yl]-3-pyridyl]-1H-pyrazole-5-carboxamide] | 0.0053 | 0.0291
– | – | CC(C)Cc1cc(C(=O)Nc2ccc([C@@H]3CNCCO3)nc2)[nH]n1 [Example 88, 3-Isobutyl-N-[6-[(2S)-morpholin-2-yl]-3-pyridyl]-1H-pyrazole-5-carboxamide] | 0.0113 | 0.011
– | – | CC(C)Cc1n[nH]c(C(=O)Nc2ccc([C@@H]3CNCCO3)nc2)c1F [Example 89, 4-Fluoro-3-isobutyl-N-[6-[(2S)-morpholin-2-yl]-3-pyridyl]-1H-pyrazole-5-carboxamide] | 0.0133 | 0.0297

Kd (mouse TAAR1; mouse TAAR1 membranes, saturation curve, usual value per membrane batch, read-out: dissociation constant (Kd) of the radioligand) [nM] | Kd (rat TAAR1; rat TAAR1 membranes, saturation curve, usual value per membrane batch, read-out: dissociation constant (Kd) of the radioligand) [nM] | Compound | Ki (mouse TAAR1) [µM] | Ki (rat TAAR1) [µM]
– | – | CCCCc1n[nH]c(C(=O)Nc2ccc([C@@H]3CNCCO3)nc2)c1F [Example 90, 3-Butyl-4-fluoro-N-[6-[(2S)-morpholin-2-yl]-3-pyridyl]-1H-pyrazole-5-carboxamide] | 0.0038 | 0.0269
– | – | CCCCc1cc(C(=O)Nc2ccc([C@@H]3CNCCO3)nc2)[nH]n1 [Example 91, 3-Butyl-N-[6-[(2S)-morpholin-2-yl]-3-pyridyl]-1H-pyrazole-5-carboxamide] | 0.0031 | 0.0061
– | – | CC(C)c1cc(C(=O)Nc2ccc([C@@H]3CNCCO3)nc2)n(CC(F)(F)F)n1 [Example 92, 5-Isopropyl-N-[6-[(2S)-morpholin-2-yl]-3-pyridyl]-2-(2,2,2-trifluoroethyl)pyrazole-3-carboxamide] | 0.262 | 0.0597
– | – | CC(C)n1nc(OCC(F)(F)F)cc1C(=O)Nc1ccc([C@@H]2CNCCO2)nc1 [Example 93, 2-Isopropyl-N-[6-[(2S)-morpholin-2-yl]-3-pyridyl]-5-(2,2,2-trifluoroethoxy)pyrazole-3-carboxamide] | 0.0215 | 0.0023
– | – | CC(C)Cc1cc(C(=O)Nc2ccc([C@H]3CNCCO3)nc2)[nH]n1 [Example 94, 3-Isobutyl-N-[6-[(2R)-morpholin-2-yl]-3-pyridyl]-1H-pyrazole-5-carboxamide] | 0.0216 | 0.107
– | – | CC(C)Cc1n[nH]c(C(=O)Nc2ccc([C@H]3CNCCO3)nc2)c1F [Example 95, 4-Fluoro-3-isobutyl-N-[6-[(2R)-morpholin-2-yl]-3-pyridyl]-1H-pyrazole-5-carboxamide] | 0.0113 | 0.0534
– | – | CCCCc1n[nH]c(C(=O)Nc2ccc([C@H]3CNCCO3)nc2)c1F [Example 96, 3-Butyl-4-fluoro-N-[6-[(2R)-morpholin-2-yl]-3-pyridyl]-1H-pyrazole-5-carboxamide] | 0.0035 | 0.0554
– | – | CCCCc1cc(C(=O)Nc2ccc([C@H]3CNCCO3)nc2)[nH]n1 [Example 97, 3-Butyl-N-[6-[(2R)-morpholin-2-yl]-3-pyridyl]-1H-pyrazole-5-carboxamide] | 0.0043 | 0.0387
– | – | CC(C)c1cc(C(=O)Nc2ccc([C@H]3CNCCO3)nc2)n(CC(F)(F)F)n1 [Example 98, 5-Isopropyl-N-[6-[(2R)-morpholin-2-yl]-3-pyridyl]-2-(2,2,2-trifluoroethyl)pyrazole-3-carboxamide] | 0.24 | 0.0442
– | – | CC(C)n1nc(OCC(F)(F)F)cc1C(=O)Nc1ccc([C@H]2CNCCO2)nc1 [Example 99, 2-Isopropyl-N-[6-[(2R)-morpholin-2-yl]-3-pyridyl]-5-(2,2,2-trifluoroethoxy)pyrazole-3-carboxamide] | 0.0242 | 0.0041
– | – | CC(C)c1n[nH]c(C(=O)Nc2ccc([C@H]3CNCCO3)nc2)c1Cl [Example 115, 4-Chloro-3-isopropyl-N-[6-[(2R)-morpholin-2-yl]-3-pyridyl]-1H-pyrazole-5-carboxamide] | 0.0087 | 0.009
– | – | CC(C)c1n[nH]c(C(=O)Nc2ccc([C@H]3CNCCO3)nc2)c1F [Example 116, 4-Fluoro-3-isopropyl-N-[6-[(2R)-morpholin-2-yl]-3-pyridyl]-1H-pyrazole-5-carboxamide] | 0.015 | 0.12
– | – | CC(C)c1n[nH]c(C(=O)Nc2ccc([C@@H]3CNCCO3)nc2)c1Cl [Example 120, 4-Chloro-3-isopropyl-N-[6-[(2S)-morpholin-2-yl]-3-pyridyl]-1H-pyrazole-5-carboxamide] | 0.0311 | 0.0203
– | – | CC(C)c1n[nH]c(C(=O)Nc2ccc([C@@H]3CNCCO3)nc2)c1F [Example 121, 4-Fluoro-3-isopropyl-N-[6-[(2S)-morpholin-2-yl]-3-pyridyl]-1H-pyrazole-5-carboxamide] | 0.0239 | 0.0954
~0.7 | ~2.3 | CCN(C[C@H]1COC(N)=N1)c1ccccc1 [^3[H]—(S)-4-[(ethyl-phenyl-amino)-methyl]-4,5-dihydro-oxazol-2-ylamine, reference compound] | – | –
